Data as given in patent US20020022746A1, “Method for the crystallization of iopamidol” (priority 1998, published 2002).

Test: Solubility of Iopamidol plotted against reflux time (FIG. 1)
Assay type: physicochemical
Method: With reference to FIG. 1, there is a graph showing the solubility of Iopamidol plotted against reflux time when a ratio of Iopamidol:water:ethanol 4:1:8 (w/v/v) is used in accordance with the method of the present invention. As shown in this graph, the reflux for 4 hours or greater allows the crystallized Iopamidol to have a solubility of 80% or greater. […] Because Iopamidol monohydrates or pentahydrates are of about 50% solubility, the method of the present invention can convert Iopamidol monohydrates or pentahydrates into Iopamidol anhydrides.
FIG. 1 is a graph showing the solubility change of the Iopamidol with reflux time.

Row | solubility (hydrated crystalline forms) | solubility (crystallized Iopamidol, Iopamidol:water:ethanol 4:1:8 (w/v/v), reflux for 4 hours or greater) | SMILES
1 | about 50% |  | C[C@H](O)C(=O)Nc1c(I)c(C(=O)NC(CO)CO)c(I)c(C(=O)NC(CO)CO)c1I [Iopamidol monohydrates, Iopamidol]
2 |  | ≥ 80% | C[C@H](O)C(=O)Nc1c(I)c(C(=O)NC(CO)CO)c(I)c(C(=O)NC(CO)CO)c1I [Iopamidol]
